Assay [1] concerns HCT 116 cell line. The assay can be described thus: Cell inhibition assay method A (WST-1, 120 hrs). It is filed as cell-based. The settings on record: Homo sapiens, HCT-116, method A, read-out: Inhibitor Activity vs HCT 116 cell line (method A). The procedure: (§1) Cell inhibition assays were carried out using either method A or method B
Cells were seeded in 96W tissue culture plates (1 well=30 mm^2) at a density of […] per well in 50 μL of the appropriate culture medium (see below). 24 hrs later […] of the compound prepared in the same medium was added as 4 fold dilutions to give final concentrations in the range 0.15 nM-2500 nM (n=6 for each concentration). The plates were then incubated at 37° C., 5% CO2 for 120 hrs. Cell proliferation was assessed using WST-1 (a metabolic indicator dye, Roche Cat no. 1 644 807) according to the manufacturers instructions. The results were calculated as percentage of vehicle response and IC50 values represent the concentration of compound that inhibited the vehicle response by 50%.
HCT-116 culture medium —Dulbeccos MEM (Sigma D6546) plus 10% heat inactivated fetal calf serum (Hyclone SH30071 Thermo Fischer Scientific) containing 2 mM Glutamine (Sigma cat no G-7513) and 50 U/ml Penicillin and Streptomycin Sulphate (Sigma Cat no P-0781).

Assay [2] concerns the target T1, PLK1 (Homo sapiens, UniProt P53350).
T1 construct: purchased Invitrogen (Paisley, UK)
Put plainly: PLK1 enzyme assay (Z'-LYTE, Invitrogen). It is filed as biochemical. The procedure: The ability of compounds to inhibit PLK-1 kinase activity was measured in an assay performed by Invitrogen (Paisley, UK). The Z′-LYTE™ biochemical assay employs a fluorescence-based, coupled-enzyme format and is based on the differential sensitivity of phosphorylated and non-phosphorylated peptides to proteolytic cleavage. The peptide substrate is labelled with two fluorophores—one at each end—that make up a FRET pair. In the primary reaction, the kinase transfers the gamma-phosphate of ATP to a single serine or threonine residue in a synthetic FRET-peptide. In the secondary reaction, a site-specific protease recognizes and cleaves non-phosphorylated FRET-peptides. Phosphorylation of FRET-peptides suppresses cleavage by the Development Reagent. Cleavage disrupts FRET between the donor (i.e., coumarin) and acceptor (i.e., fluorescein) fluorophores on the FRET-peptide, whereas uncleaved, phosphorylated FRET-peptides maintain FRET. A […] method, which calculates the ratio (the Emission Ratio) of donor emission to acceptor emission after excitation of the donor fluorophore at 400 nm, is used to quantitate reaction progress.
The assay is performed at an ATP concentration at, or close to, the Km. After the 60 minute Kinase Reaction incubation at RT, 5 μL of a 1:8 dilution of Development Reagent is added. The assay plate is incubated for a further 60 minutes at RT and read on a fluorescence plate reader.
Duplicate data points are generated from a ⅓ log dilution series of a stock solution of test compound in DMSO. Nine dilutions steps are made from a top concentration of 10 μM, and a ‘no compound’ blank is included. Data is collected and analysed using XLfit software from IDBS.

For assay [3], the system named is U937 cell. Put plainly: Cell inhibition assay method B (tritiated thymidine incorporation, 72 hrs). Format: cell-based. The settings on record: Homo sapiens, U-937, read-out: Inhibition of U937 cell proliferation (IC50, nM) (method B). The procedure: as §1
The plates were then incubated at 37° C., 5% CO2 for 72 hrs.
A tritiated thymidine incorporation assay was used as a measure of cell proliferation. In short, cells were incubated with 0.4 μCi/well for 4 hrs before harvesting onto filtermats. These were dried, meltilex scintillation sheets melted on, then sealed in bags and ^3H emission counted on a Trilux microbeta counter.
(Dividing cells build labelled thymidine or BrdU into new DNA.)

The mark [4] stands for this setting: ATP at or close to Km, read-out: Inhibitor Activity vs PLK1.

Read-outs that look alike come from different tables or passages of the source. Some results are limits rather than exact numbers.

T1 sequence (P53350 whole entry): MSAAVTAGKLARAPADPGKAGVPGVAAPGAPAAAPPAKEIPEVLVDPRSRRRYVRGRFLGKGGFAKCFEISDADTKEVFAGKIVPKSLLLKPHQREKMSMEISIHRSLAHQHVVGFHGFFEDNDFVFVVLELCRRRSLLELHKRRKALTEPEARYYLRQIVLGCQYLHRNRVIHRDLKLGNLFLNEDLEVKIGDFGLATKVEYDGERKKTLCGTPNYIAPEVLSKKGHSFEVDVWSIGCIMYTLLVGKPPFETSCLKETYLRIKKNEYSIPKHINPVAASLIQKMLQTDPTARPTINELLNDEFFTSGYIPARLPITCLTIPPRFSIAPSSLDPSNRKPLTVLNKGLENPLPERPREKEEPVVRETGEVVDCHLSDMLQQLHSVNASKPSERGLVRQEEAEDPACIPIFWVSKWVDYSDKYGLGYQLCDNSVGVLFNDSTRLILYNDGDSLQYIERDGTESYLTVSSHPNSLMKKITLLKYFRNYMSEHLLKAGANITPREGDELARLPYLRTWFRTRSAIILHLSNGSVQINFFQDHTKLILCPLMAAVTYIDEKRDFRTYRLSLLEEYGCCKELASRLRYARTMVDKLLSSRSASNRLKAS

With `CC[C@@H]1C(=O)N(C)c2cnc(Nc3ccc(C(=O)NCC[C@H](N)C(=O)OC4CCCC4)cc3OC)nc2N1C1CCCC1` [Example 5, Cyclopentyl (2S)-2-amino-4-[(4-{[(7R)-8-cyclopentyl-7-ethyl-5-methyl-6-oxo-5,6,7,8-tetrahydropteridin-2-yl]amino}-3-methoxybenzoyl)amino]butanoate], the IC50 in assay [1] and in assay [2] (setting [4]) was less than 100 nM each time.
In the case of `CC[C@@H]1C(=O)N(C)c2cnc(Nc3ccc(C(=O)NC4CCN(CC[C@H](N)C(=O)OC5CCCC5)C4)cc3OC)nc2N1C1CCCC1` (stereo partly shown) [Example 16], the IC50 in assay [1] and in assay [2] (setting [4]) was less than 100 nM each time.
For `CC[C@@H]1C(=O)N(C)c2cnc(Nc3ccc(C(=O)Nc4ccc(/C=C/C[C@H](N)C(=O)OC5CCCC5)cc4)cc3OC)nc2N1C1CCCC1` [Example 20, Cyclopentyl (2S,4E)-2-amino-5-{4-[(4-{[(7R)-8-cyclopentyl-7-ethyl-5-methyl-6-oxo-5,6,7,8-tetrahydropteridin-2-yl]amino}-3-methoxybenzoyl)amino]phenyl}pent-4-enoate], the IC50 in assay [1] and in assay [2] (setting [4]) was less than 100 nM throughout.
In the case of `CC[C@@H]1C(=O)N(C)c2cnc(Nc3ccc(C(=O)NCCN4CCNC(C(=O)OC5CCCC5)C4)cc3OC)nc2N1C1CCCC1` (stereo partly drawn) [Example 14, Cyclopentyl 4-{2-[(4-{[(7R)-8-cyclopentyl-7-ethyl-5-methyl-6-oxo-5,6,7,8-tetrahydropteridin-2-yl]amino}-3-methoxybenzoyl)amino]ethyl}piperazine-2-carboxylate], the IC50 in assay [1] and in assay [2] (setting [4]) was less than 100 nM in each case.
`CC[C@@H]1C(=O)N(C)c2cnc(Nc3ccc(OCC[C@H](N)C(=O)OC4CCCC4)cc3OC)nc2N1C1CCCC1` [Example 4, Cyclopentyl O-(4-{[(7R)-8-cyclopentyl-7-ethyl-5-methyl-6-oxo-5,6,7,8-tetrahydropteridin-2-yl]amino}-3-methoxyphenyl)-L-homoserinate]: the IC50 in assay [1] and in assay [2] (setting [4]) was less than 100 nM in each case.
On to `CC[C@@H]1C(=O)N(C)c2cnc(Nc3ccc(C(=O)Nc4ccc(C[C@H](N)C(=O)OC5CCCC5)cc4)cc3OC)nc2N1C1CCCC1` [Example 7, Cyclopentyl 4-[(4-{[(7R)-8-cyclopentyl-7-ethyl-5-methyl-6-oxo-5,6,7,8-tetrahydropteridin-2-yl]amino}-3-methoxybenzoyl)amino]-L-phenylalaninate], for which the figures for the IC50 in assay [1] and in assay [2] (setting [4]) were less than 100 nM and 100 to 500 nM, respectively.
Take `CC[C@@H]1C(=O)N(C)c2cnc(Nc3ccc(C(=O)NC4CCN(CC[C@@H](N)C(=O)OC5CCCC5)CC4)cc3OC)nc2N1C1CCCC1` [Example 31, Cyclopentyl (2R)-2-amino-4-{4-[(4-{((7R)-8-cyclopentyl-7-ethyl-5-methyl-6-oxo-5,6,7,8-tetra hydropteridin-2-yl]amino}-3-methoxybenzoyl)amino]piperidin-1-yl}butanoate]: the IC50 in assay [1] and in assay [2] (setting [4]) was less than 100 nM in each case.
With `CC[C@@H]1C(=O)N(C)c2cnc(Nc3ccc(C(=O)NC4CCN(CCC[C@H](N)C(=O)OC(C)(C)C)CC4)cc3OC)nc2N1C1CCCC1` [Example 23, tert-butyl 5-{4-[(4-{[(7R)-8-cyclopentyl-7-ethyl-5-methyl-6-oxo-5,6,7,8-tetrahydropteridin-2-yl]amino}-3-methoxybenzoyl)amino]piperidin-1-yl}-L-norvalinate], the IC50 in assay [1] and in assay [2] (setting [4]) was less than 100 nM each time.
Regarding `CC[C@@H]1C(=O)N(C)c2cnc(Nc3ccc(C(=O)NC4CCN(CC[C@H](N)C(=O)OC5CCCC5)CC4)cc3OC)nc2N1C1CCCC1` [Example 22, Cyclopentyl (2S)-2-amino-4-{4-[(4-{[(7R)-8-cyclopentyl-7-ethyl-5-methyl-6-oxo-5,6,7,8-tetrahydropteridin-2-yl]amino}-3-methoxybenzoyl)amino]piperidin-1-yl}butanoate], the IC50 in assay [1] was less than 100 nM; in assay [3], 0.09 nM; in assay [2] (setting [4]), less than 100 nM; in assay [2] (ester (for Compound 1: the compound itself, one cell spans ester/acid), read-out: Inhibition of PLK (IC50, nM) ester), 6 nM.
With `CC[C@@H]1C(=O)N(C)c2cnc(Nc3ccc(C(=O)NC4CCN(CCC[C@H](N)C(=O)OC5CCCC5)CC4)cc3OC)nc2N1C1CCCC1` [Example 24, Cyclopentyl 5-{4-[(4-{[(7R)-8-cyclopentyl-7-ethyl-5-methyl-6-oxo-5,6,7,8-tetrahydropteridin-2-yl]amino}-3-methoxybenzoyl)amino]piperidin-1-yl}-L-norvalinate], the IC50 in assay [1] and in assay [2] (setting [4]) was less than 100 nM throughout.
`CC[C@@H]1C(=O)N(C)c2cnc(Nc3ccc(C(=O)Nc4ccc(C[C@H](N)C(=O)OC(C)(C)C)cc4)cc3OC)nc2N1C1CCCC1` [Example 11, tert-Butyl 4-[(4-{[(7R)-8-cyclopentyl-7-ethyl-5-methyl-6-oxo-5,6,7,8-tetrahydropteridin-2-yl]amino}-3-methoxybenzoyl)amino]-L-phenylalaninate]: the IC50 in assay [1] is 100 to 500 nM; in assay [2] (setting [4]) it was less than 100 nM.
Regarding `CC[C@@H]1C(=O)N(C)c2cnc(Nc3ccc(C(=O)N[C@@H]4CN[C@H](C(=O)OC5CCCC5)C4)cc3OC)nc2N1C1CCCC1` [Example 6, Cyclopentyl (4S)-4-[(4-{[(7R)-8-cyclopentyl-7-ethyl-5-methyl-6-oxo-5,6,7,8-tetrahydropteridin-2-yl]amino}-3-methoxybenzoyl)amino]-L-prolinate], the IC50 in assay [1] and in assay [2] (setting [4]) was less than 100 nM throughout.
As to `CC[C@@H]1C(=O)N(C)c2cnc(Nc3ccc(/C=C/C[C@H](N)C(=O)OC4CCCC4)cc3)nc2N1C1CCCC1` [Example 2], the IC50 in assay [1] and in assay [2] (setting [4]) was less than 100 nM throughout.
